Laboratory results from ChEMBL document CHEMBL1147920, “Identification of a novel class of succinyl-nitrile-based Cathepsin S inhibitors” (Bioorg Med Chem Lett, 2007).

biological target: Cathepsin S (Homo sapiens, UniProt P25774); experiment: Inhibition of human cathepsin S
Sequence (P25774 whole entry): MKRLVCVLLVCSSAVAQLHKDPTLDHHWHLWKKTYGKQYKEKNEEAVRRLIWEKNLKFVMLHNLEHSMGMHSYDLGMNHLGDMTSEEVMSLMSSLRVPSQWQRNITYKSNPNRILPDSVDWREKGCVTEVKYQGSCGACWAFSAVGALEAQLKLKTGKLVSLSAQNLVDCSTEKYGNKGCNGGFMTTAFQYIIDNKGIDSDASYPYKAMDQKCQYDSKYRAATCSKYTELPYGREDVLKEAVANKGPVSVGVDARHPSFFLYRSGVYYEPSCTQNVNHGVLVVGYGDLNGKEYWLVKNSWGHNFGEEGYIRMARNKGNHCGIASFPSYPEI

Row | SMILES | IC50 | Kd
1 | N#C[C@H](COCc1ccc(Cl)cc1)NC(=O)[C@@H](CC(=O)N1CCOCC1)CC1CCCCC1 | 62 nM | 4.86 nM
2 | N#C[C@@]1(NC(=O)[C@@H](CC(=O)N2CCOCC2)CC2CCCC2)CCN(C2CCCCC2)C1 | 63 nM | 59 nM
3 | N#C[C@]1(NC(=O)[C@@H](CC(=O)N2CCOCC2)CC2CCCCC2)CCN(CC2CCCCC2)C1 | 41 nM | 13.8 nM
4 | N#C[C@@]1(NC(=O)[C@@H](CC(=O)N2CCOCC2)CC2CCC(c3ccccc3)CC2)CCN(C2CCCCC2)C1 (some centres undefined) | 3140 nM | 
5 | N#CC1(NC(=O)[C@@H](CC(=O)N2CCOCC2)CC2CCCCC2)CC1 | 135 nM | 12 nM
6 | N#CC1(NC(=O)[C@@H](CC(=O)N2CCOCC2)CC2CCCCC2)CCN(Cc2ccccc2)CC1 | 207 nM | 52 nM
7 | CN1CC[C@@](C#N)(NC(=O)[C@@H](CC(=O)N2CCOCC2)CC2CCCCC2)C1 | 155 nM | 161 nM
8 | N#C[C@@]1(NC(=O)[C@@H](CC(=O)N2CCOCC2)CC2CCCCC2)CCNC1 | 141 nM | 123 nM
9 | CC(C)N1CC[C@@](C#N)(NC(=O)[C@@H](CC(=O)N2CCOCC2)CC2CCCCC2)C1 | 66 nM | 60.6 nM
10 | CN1CCC(C#N)(NC(=O)[C@@H](CC(=O)N2CCOCC2)CC2CCCCC2)CC1 | 251 nM | 177 nM
11 | CC1(C[C@H](CC(=O)N2CCOCC2)C(=O)N[C@]2(C#N)CCN(C3CCCCC3)C2)CCCCC1 | 47 nM | 77.3 nM
12 | N#C[C@@]1(NC(=O)[C@@H](CC(=O)N2CCOCC2)CC2Cc3ccccc3C2)CCN(C2CCCCC2)C1 | 42 nM | 23.1 nM
13 | N#C[C@@]1(NC(=O)[C@@H](CC(=O)N2CCOCC2)CC2CCCCC2)CCN(C2CCCC2)C1 | 75 nM | 
14 | N#C[C@H](CCc1ccccc1)NC(=O)[C@@H](CC(=O)N1CCOCC1)CC1CCCCC1 | 171 nM | 25 nM

Now those with a lower IC50, led by results:

Row | IC50 | Kd | SMILES
15 | 39 nM | 53.3 nM | CC(C)CN1CC[C@@](C#N)(NC(=O)[C@@H](CC(=O)N2CCOCC2)CC2CCCCC2)C1
16 | 37 nM | 4.39 nM | N#C[C@H](COCc1ccccc1)NC(=O)[C@@H](CC(=O)N1CCOCC1)CC1CCCCC1
17 | 29 nM | 3.64 nM | N#C[C@]1(NC(=O)[C@@H](CC(=O)N2CCOCC2)CC2CCCCC2)CCN(Cc2ccccc2)C1
18 | 23 nM | 17.8 nM | N#C[C@@]1(NC(=O)[C@@H](CC(=O)N2CCOCC2)CC2CCCCC2)CCN(C2CCCCC2)C1
19 | 23 nM | 11 nM | N#C[C@@]1(NC(=O)[C@@H](CC(=O)N2CCOCC2)CC2CCCCC2)CCN(C2CCCCCC2)C1
20 | 22.3 nM | 15.2 nM | N#C[C@@]1(NC(=O)[C@@H](CC(=O)N2CCOCC2)CC2CCCCC2)CCN(CCc2ccccc2)C1
21 | 22 nM | 20 nM | N#C[C@@]1(NC(=O)[C@@H](CC(=O)N2CCOCC2)CC2CCCCC2)CCN(CC2CC2)C1
22 | 14 nM | 13.8 nM | CC1CCC(C[C@H](CC(=O)N2CCOCC2)C(=O)N[C@]2(C#N)CCN(C3CCCCC3)C2)CC1 (some centres undefined)
23 | 1.9 nM | 5.4 nM | N#C[C@@]1(NC(=O)[C@@H](CC(=O)N2CCOCC2)CC2CCc3ccccc3C2)CCN(C2CCCCC2)C1 (some centres undefined)
